Data on 28 compounds can be found in patent US8088806B2 (Achillion Pharmaceuticals, Inc., priority 2005, dated 2012).

The test system of one assay is HCV replicon. Nature of the assay: Replicon based assay of HCV replication inhibition (NPT ELISA). The format is cell-based, Hepatitis C virus. To be noted: Hepatitis C virus, read-out: Activity. An outline of the steps:
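Huh-7 cells carrying a bicistronic HCV replicon (neo, EMCV-IRES-driven NS3–NS5B) treated overnight after seeding with usually 6 concentrations, 10 to 0.03 micromolar, for three days at 37° C without G418. Replication read as NPT level by captured ELISA; matched-DMSO wells and interferon alpha as controls.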
On the technique in general: Replicon systems follow genome replication, usually without infectious particles.
Consider `CCCCCCCCOc1cc([N+](=O)[O-])c(Nc2nc(-c3cccnc3)c([N+](=O)[O-])s2)cc1C(F)(F)F` [compound 788, N-(5-(trifluoromethyl)-2-nitro-4-(octyloxy)phenyl)-5-nitro-4-(pyridin-3-yl)thiazol-2-amine], for which the EC50 fell in the range of 1000 to 10000 nM.

The assay is the same for the next values; noted with them: Hepatitis C virus, replicon based assay of HCV replication inhibition; Table IV; read-out: Activity.
Consider `FC(F)(F)c1cccc(-c2csc(Nc3ccc(OCC4CCCCC4)c(C(F)(F)F)c3)n2)c1` [compound 771, N-(4-(cyclohexylmethoxy)-3-(trifluoromethyl)phenyl)-4-(3-(trifluoromethyl)phenyl)thiazol-2-amine], for which the EC50 was under 1000 nM.

As to `COc1cccc(-c2csc(Nc3ccc(OCC4CCCCC4)c(C(F)(F)F)c3)n2)n1` [compound 772, N-(4-(cyclohexylmethoxy)-3-(trifluoromethyl)phenyl)-4-(6-methoxypyridin-2-yl)thiazol-2-amine], the EC50 was under 1000 nM.

Regarding `COc1ccc2cc(-c3csc(Nc4ccc(OCC5CCCCC5)c(C(F)(F)F)c4)n3)ccc2c1` [compound 773, N-(4-(cyclohexylmethoxy)-3-(trifluoromethyl)phenyl)-4-(2-methoxynaphthalen-6-yl)thiazol-2-amine], the EC50 was under 1000 nM.

Regarding `FC(F)(F)c1cc(Nc2nc(-c3cccc4cccnc34)cs2)ccc1OCC1CCCCC1` [compound 774, N-(4-(cyclohexylmethoxy)-3-(trifluoromethyl)phenyl)-4-(quinolin-8-yl)thiazol-2-amine], the EC50 is under 1000 nM.

As to `COc1ncc(-c2csc(Nc3ccc(OC/C=C(\C)CCC=C(C)C)c(C(F)(F)F)c3)n2)cn1` [compound 775, N-(4-((E)-3,7-dimethylocta-2,6-dienyloxy)-3-(trifluoromethyl)phenyl)-4-(2-methoxypyrimidin-5-yl)thiazol-2-amine], the EC50 is under 1000 nM.

For the compound `COc1ncc(-c2csc(Nc3ccc(OCCC(C)CCCC(C)C)c(C(F)(F)F)c3)n2)cn1` (stereo not shown) [compound 776, N-(4-(3,7-dimethyloctyloxy)-3-(trifluoromethyl)phenyl)-4-(2-methoxypyrimidin-5-yl)thiazol-2-amine], the EC50 is under 1000 nM.

On to `CCCCCCCCSc1ccc(Nc2nc(-c3cnc(OC)nc3)cs2)cc1C(F)(F)F` [compound 777, N-(3-(trifluoromethyl)-4-(octylthio)phenyl)-4-(2-methoxypyrimidin-5-yl)thiazol-2-amine], for which the EC50 was under 1000 nM.

Regarding `COc1ncc(-c2csc(Nc3ccc(C(=O)N4CCC5CCCCC5C4)c(C(F)(F)F)c3)n2)cn1` (stereo not shown) [compound 778, (4-(4-(2-methoxypyrimidin-5-yl)thiazol-2-ylamino)-2-(trifluoromethyl)phenyl) (octahydroisoquinolin-2(1H)-yl)methanone], the EC50 is 1000 to 10000 nM.

`CCCCCCCCOC(=O)c1ccc(Nc2nc(-c3cnc(OC)nc3)cs2)cc1C(F)(F)F` [compound 779, octyl 4-(4-(2-methoxypyrimidin-5-yl)thiazol-2-ylamino)-2-(trifluoromethyl)benzoate]: the EC50 is under 1000 nM.

In the case of `CCCCCCC#Cc1ccc(Nc2nc(-c3cnc(OC)nc3)cs2)cc1C(F)(F)F` [compound 780, N-(3-(trifluoromethyl)-4-(oct-1-ynyl)phenyl)-4-(2-methoxypyrimidin-5-yl)thiazol-2-amine], the EC50 was under 1000 nM.

Turning to `COc1ncc(-c2csc(Nc3ccc(N4CCC5CCCCC5C4)c(C(F)(F)F)c3)n2)cn1` (stereo not shown) [compound 781, N-(3-(trifluoromethyl)-4-(octahydroisoquinolin-2(1H)-yl)phenyl)-4-(2-methoxypyrimidin-5-yl)thiazol-2-amine], the EC50 was under 1000 nM.

Regarding `CCCCCCCCOc1ccc(Nc2nc(-c3ccc(O)cc3O)cs2)cc1C(F)(F)F` [compound 782, 4-(2-(3-(trifluoromethyl)-4-(octyloxy)phenylamino)thiazol-4-yl)benzene-1,3-diol], the EC50 was under 1000 nM.

Turning to `CCCCCCCCOc1ccc(Nc2nc(-c3cccn3C)cs2)cc1C(F)(F)F` [compound 783, N-(3-(trifluoromethyl)-4-(octyloxy)phenyl)-4-(1-methyl-1H-pyrrol-2-yl)thiazol-2-amine], the EC50 is under 1000 nM.

Regarding `CCCCCCCCOc1ccc(Nc2nc(C(=O)CNc3nccs3)cs2)cc1C(F)(F)F` [compound 784, 1-(2-(3-(trifluoromethyl)-4-(octyloxy)phenylamino)thiazol-4-yl)-2-(thiazol-2-ylamino)ethanone], the EC50 is under 1000 nM.

In the case of `CCCCCCCCOc1ccc(Nc2nc(C(=O)CSc3ncc[nH]3)cs2)cc1C(F)(F)F` [compound 785, 2-(1H-imidazol-2-ylthio)-1-(2-(3-(trifluoromethyl)-4-(octyloxy)phenylamino)thiazol-4-yl)ethanone], the EC50 lay in the range of 1000 to 10000 nM.

On to `CCCCCCCCOc1ccc(Nc2nc(C3=CSC4=NCCCN34)cs2)cc1C(F)(F)F` [compound 786, N-(3-(trifluoromethyl)-4-(octyloxy)phenyl)-4-(6,7-dihydro-5H-thiazolo[3,2-a]pyrimidin-3-yl)thiazol-2-amine], for which the EC50 is under 1000 nM.

On to `CCCCCCCCOc1ccc(Nc2nc(-c3cccnc3)c([N+](=O)[O-])s2)cc1C(F)(F)F` [compound 787, N-(3-(trifluoromethyl)-4-(octyloxy)phenyl)-5-nitro-4-(pyridin-3-yl)thiazol-2-amine], for which the EC50 lay within 1000 to 10000 nM.

As for `CCCCCCC#Cc1ccc(Nc2nc(-c3cccnc3)cs2)cc1C(F)(F)F` [compound 789, N-(3-(trifluoromethyl)-4-(oct-1-ynyl)phenyl)-4-(pyridin-3-yl)thiazol-2-amine], the EC50 is under 1000 nM.

With `CCOC(=O)Cc1csc(Nc2nc(-c3cccnc3)cs2)n1` [compound 790, ethyl 2-(2-(4-(pyridin-3-yl)thiazol-2-ylamino)thiazol-4-yl)acetate], the EC50 is over 10000 nM.

Take `c1cncc(-c2csc(Nc3nc4ccccc4[nH]3)n2)c1` [compound 791, N-(4-(pyridin-3-yl)thiazol-2-yl)-1H-benzo[d]imidazol-2-amine]: the EC50 is over 10000 nM.

Consider `O=S1(=O)CCN(Cc2ccc(Nc3nc(-c4cccnc4)cs3)cc2)CC1` [compound 792], for which the EC50 was over 10000 nM.

For `FC(F)(F)c1ccc(-c2cc(Nc3nc(-c4cccnc4)cs3)on2)cc1` [compound 793, 3-(4-(trifluoromethyl)phenyl)-N-(4-(pyridin-3-yl)thiazol-2-yl)isoxazol-5-amine], the EC50 was over 10000 nM.

For the compound `Cc1ccc2nc(Nc3nc(-c4cccnc4)cs3)sc2c1` [compound 794, 6-methyl-N-(4-(pyridin-3-yl)thiazol-2-yl)benzo[d]thiazol-2-amine], the EC50 is over 10000 nM.

As to `CCCCOC(=O)c1n[nH]c(Nc2nc(-c3cccnc3)cs2)n1` [compound 795, butyl 5-(4-(pyridin-3-yl)thiazol-2-ylamino)-1H-1,2,4-triazole-3-carboxylate], the EC50 was over 10000 nM.

As for `c1ccc(-c2nsc(Nc3nc(-c4cccnc4)cs3)n2)cc1` [compound 796, 3-phenyl-N-(4-(pyridin-3-yl)thiazol-2-yl)-1,2,4-thiadiazol-5-amine], the EC50 was over 10000 nM.

On to `CC(C)(C)c1csc(Nc2nc(-c3cccnc3)cs2)n1` [compound 797, 4-tert-butyl-N-(4-(pyridin-3-yl)thiazol-2-yl)thiazol-2-amine], for which the EC50 is over 10000 nM.

`FC(F)(F)c1cc(Nc2nc(-c3cccnc3)cs2)ccc1OCCCCc1cccs1` [compound 799, N-(4-(4-(thiophen-2-yl)butoxy)-3-(trifluoromethyl)phenyl)-4-(pyridin-3-yl)thiazol-2-amine]: the EC50 was under 1000 nM.
